From patent US20220265769A1, “COMPOSITIONS AND METHODS OF TREATMENT FOR BREAST CANCER INVOLVING A NOVEL CAPER?-MLL1 COMPLEX” (Geisinger Health, priority 2019, published 2022)

Assays:
[1] = target: T1, RBM39 (CAPERα)/MLL1 complex (Homo sapiens, UniProt Q03164); test: Anti-RBM39 co-immunoprecipitation of MLL1 complex members from peptide-treated breast cancer cell lysates; assay type: cell-based
T1 construct: endogenous in cells; lines from ATCC
Text: (§1) FIG. 31. Key structural domains mediate the RRM3-MLL1 interaction. A) Modeling of RRM3 domain structure (amino acids: 441 to 510; SEQ ID NO: 13) using the SWISS MODEL tool and conserved domains by sequence alignment with vertebrate RRM-domaining proteins (https://www.ncbi.nlm.nih.gov/Structure/cdd/cddsrv.cgi?uid=240731) B) Top: anti-MLL1 IB to test the interaction between MLL1 and myc-tagged, deletion mutant RRM3 proteins in HEK293 cells. Bottom: IB/IP to quantitate myc-tagged proteins in lysates from HEK293 overexpressing wild type and microdeleted RRM3 domains. C) Bar graphs quantitating % viable cells after peptide treatments (peptides are numbered 1-5 as in FIG. 10) for 4 days. […] Lanes are labeled with peptide names. Arrowhead highlights signal from the entry of CPP. […] F) Anti-RBM39 immunoprecipitated samples from Neg.CPP (SEQ ID NO: 12), CPP-L491-L508 (SEQ ID NO: 24), CPP-G441-V460 (SEQ ID NO: 20), and CPP-E445-V476 (SEQ ID NO: 15) treated T47D lysates assayed by immunoblotting with antibodies against MLL1, ASH2L, RbBP5. […] G) Representative co-immunoprecipitations to show the interaction between RBM39 and its RBP interactors in Neg.CPP and CPP-E445-V476 treated T47D cell lysates. […]

[2] = test system: breast cancer cell subtypes; test: Total cell number and viability of an array of breast cancer cell subtypes treated with synthetic RRM3-derived peptides; assay type: cell-based, human; conditions: synthetic peptides at 5 μM; for proliferation (total cell number) of breast cancer cell subtypes: 72 hours
Procedure: FIG. 10. RRM3-derived CPPs disrupts growth of multiple breast cancer cell subtypes but has no effect on normal cells. A) Schematic of RRM3 amino acids 441-510 (SEQ ID NO: 13). B) Bars represent the peptide regions used to generate CPPs based on deletion results in FIG. 31. C) Amino acid sequences of synthetic peptide: Penetratin, His tag and RRM3-derived peptide. D) Representative images of crystal violet stained breast cancer cells as listed at top, taken after 72 hours days of treatment with synthetic peptides at 5 μM. E) Quantification of total cell numbers of different cell types and peptide (1-5) treatments.
FIG. 31. Key structural domains mediate the RRM3-MLL1 interaction. A) Modeling of RRM3 domain structure (amino acids: 441 to 510; SEQ ID NO: 13) using the SWISS MODEL tool and conserved domains by sequence alignment with vertebrate RRM-domaining proteins (https://www.ncbi.nlm.nih.gov/Structure/cdd/cddsrv.cgi?uid=240731) B) Top: anti-MLL1 IB to test the interaction between MLL1 and myc-tagged, deletion mutant RRM3 proteins in HEK293 cells. Bottom: IB/IP to quantitate myc-tagged proteins in lysates from HEK293 overexpressing wild type and microdeleted RRM3 domains. C) Bar graphs quantitating % viable cells after peptide treatments (peptides are numbered 1-5 as in FIG. 10) for 4 days. […] Lanes are labeled with peptide names. Arrowhead highlights signal from the entry of CPP. […] F) Anti-RBM39 immunoprecipitated samples from Neg.CPP (SEQ ID NO: 12), CPP-L491-L508 (SEQ ID NO: 24), CPP-G441-V460 (SEQ ID NO: 20), and CPP-E445-V476 (SEQ ID NO: 15) treated T47D lysates assayed by immunoblotting with antibodies against MLL1, ASH2L, RbBP5. […] G) Representative co-immunoprecipitations to show the interaction between RBM39 and its RBP interactors in Neg.CPP and CPP-E445-V476 treated T47D cell lysates. […] Immunoprecipitations and Immunoblots assaying RBM39-MLL1 interaction in neg.CPP and CPP-E445-V476 treated T47D, HCC1954, MDA-MB231 and ZR7530 cells show reduced interaction between MLL1 and RBM39 in vivo. (arrows highlight decreased interaction).
(§2) Cell counts for CPP treatments: Cells were plated in 6-well dishes and incubated with 5 μM concentration of peptides. At days noted, cells were trypsinized and counted using a hemocytometer.
Generation of synthetic peptides from the RRM3 domain: RRM3-derived peptides were commercially synthesized by Abm at purity >80%. Peptides were dissolved in 1λPBS at 1 mg/ml and used at 5 μM in low serum (1%) RPMI media.
As per UniProt, RRM3 spans amino acids (aa) 445-508 (SEQ ID NO: 34) and SWISS tool predicts 2 α helices and 4 β sheets that are conserved in vertebrate RRM-containing proteins (FIG. 31A). A series of myc-tag microdeleted constructs were designed to identify regions required for MLL1 binding. […]

[3] = test system: PME cells; test: Crystal violet assay / cell counts of primary mammary epithelial cells (PMEs) treated with cell penetrating peptides; assay type: cell-based, human; conditions: synthetic peptides at 5 μM
Procedure: Crystal violet assay/optical density method of cell quantitation: 5×10^5 cells were plated per well in 6-well tissue culture plates. At times indicated cells were washed with PBS and fixed for 10 minutes in a 10% formalin solution. Cells were then rinsed with distilled water and subsequently stained with 100 μl 0.1% crystal violet solution for 30 min. Stained cells were rinsed with water to remove the excess traces of the staining solution. Cell-associated crystal violet dye was extracted with 500 μl of 10% acetic acid. Aliquots were collected and optical density was measured at 590 nm wavelength. Each point on the curve shown represents 3 independent wells.
as §2
Whether recombinant RRM3 conjugated with the Penetratin cell penetrating peptide (Dupont E, et al., Methods Mol Biol. 1324:29-37 (2015)) (FIGS. 9A, B) affects growth of T47D and PME cells was tested. Equal numbers of PME and T47D cells were seeded and incubated with 5 μM peptide in media for 72 hrs. […] Compared to CPP-coupled RRM3, CPP-RRM1 and RRM3 had no effect (FIGS. 9H-N). […]

[4] = target: T2, RBM39 and RNA binding proteins (RBPs) (Homo sapiens, UniProt Q14498); test: Co-immunoprecipitation of RBM39 and its RBP interactors in peptide-treated T47D cell lysates; assay type: cell-based; conditions: versus Neg.CPP
T2 construct: endogenous in cells; host or cells: T47D
T2 sequence (Q14498 2-530 limits assumed): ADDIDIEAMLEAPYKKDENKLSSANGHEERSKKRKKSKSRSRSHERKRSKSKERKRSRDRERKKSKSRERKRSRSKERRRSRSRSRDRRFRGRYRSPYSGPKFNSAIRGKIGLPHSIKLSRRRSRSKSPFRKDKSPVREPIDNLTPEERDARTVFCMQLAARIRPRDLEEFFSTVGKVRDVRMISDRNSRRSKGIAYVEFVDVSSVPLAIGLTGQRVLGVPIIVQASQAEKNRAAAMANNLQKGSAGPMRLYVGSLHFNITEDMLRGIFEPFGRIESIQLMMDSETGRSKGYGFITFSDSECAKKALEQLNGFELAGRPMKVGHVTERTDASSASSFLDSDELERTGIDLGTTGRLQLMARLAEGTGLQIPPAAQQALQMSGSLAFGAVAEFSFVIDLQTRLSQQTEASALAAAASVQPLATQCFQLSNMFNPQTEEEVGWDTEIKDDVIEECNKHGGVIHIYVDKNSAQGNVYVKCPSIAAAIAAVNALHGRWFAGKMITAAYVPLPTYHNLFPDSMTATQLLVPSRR
Text: as §1

T1 sequence (Q03164 1-2718 limits assumed): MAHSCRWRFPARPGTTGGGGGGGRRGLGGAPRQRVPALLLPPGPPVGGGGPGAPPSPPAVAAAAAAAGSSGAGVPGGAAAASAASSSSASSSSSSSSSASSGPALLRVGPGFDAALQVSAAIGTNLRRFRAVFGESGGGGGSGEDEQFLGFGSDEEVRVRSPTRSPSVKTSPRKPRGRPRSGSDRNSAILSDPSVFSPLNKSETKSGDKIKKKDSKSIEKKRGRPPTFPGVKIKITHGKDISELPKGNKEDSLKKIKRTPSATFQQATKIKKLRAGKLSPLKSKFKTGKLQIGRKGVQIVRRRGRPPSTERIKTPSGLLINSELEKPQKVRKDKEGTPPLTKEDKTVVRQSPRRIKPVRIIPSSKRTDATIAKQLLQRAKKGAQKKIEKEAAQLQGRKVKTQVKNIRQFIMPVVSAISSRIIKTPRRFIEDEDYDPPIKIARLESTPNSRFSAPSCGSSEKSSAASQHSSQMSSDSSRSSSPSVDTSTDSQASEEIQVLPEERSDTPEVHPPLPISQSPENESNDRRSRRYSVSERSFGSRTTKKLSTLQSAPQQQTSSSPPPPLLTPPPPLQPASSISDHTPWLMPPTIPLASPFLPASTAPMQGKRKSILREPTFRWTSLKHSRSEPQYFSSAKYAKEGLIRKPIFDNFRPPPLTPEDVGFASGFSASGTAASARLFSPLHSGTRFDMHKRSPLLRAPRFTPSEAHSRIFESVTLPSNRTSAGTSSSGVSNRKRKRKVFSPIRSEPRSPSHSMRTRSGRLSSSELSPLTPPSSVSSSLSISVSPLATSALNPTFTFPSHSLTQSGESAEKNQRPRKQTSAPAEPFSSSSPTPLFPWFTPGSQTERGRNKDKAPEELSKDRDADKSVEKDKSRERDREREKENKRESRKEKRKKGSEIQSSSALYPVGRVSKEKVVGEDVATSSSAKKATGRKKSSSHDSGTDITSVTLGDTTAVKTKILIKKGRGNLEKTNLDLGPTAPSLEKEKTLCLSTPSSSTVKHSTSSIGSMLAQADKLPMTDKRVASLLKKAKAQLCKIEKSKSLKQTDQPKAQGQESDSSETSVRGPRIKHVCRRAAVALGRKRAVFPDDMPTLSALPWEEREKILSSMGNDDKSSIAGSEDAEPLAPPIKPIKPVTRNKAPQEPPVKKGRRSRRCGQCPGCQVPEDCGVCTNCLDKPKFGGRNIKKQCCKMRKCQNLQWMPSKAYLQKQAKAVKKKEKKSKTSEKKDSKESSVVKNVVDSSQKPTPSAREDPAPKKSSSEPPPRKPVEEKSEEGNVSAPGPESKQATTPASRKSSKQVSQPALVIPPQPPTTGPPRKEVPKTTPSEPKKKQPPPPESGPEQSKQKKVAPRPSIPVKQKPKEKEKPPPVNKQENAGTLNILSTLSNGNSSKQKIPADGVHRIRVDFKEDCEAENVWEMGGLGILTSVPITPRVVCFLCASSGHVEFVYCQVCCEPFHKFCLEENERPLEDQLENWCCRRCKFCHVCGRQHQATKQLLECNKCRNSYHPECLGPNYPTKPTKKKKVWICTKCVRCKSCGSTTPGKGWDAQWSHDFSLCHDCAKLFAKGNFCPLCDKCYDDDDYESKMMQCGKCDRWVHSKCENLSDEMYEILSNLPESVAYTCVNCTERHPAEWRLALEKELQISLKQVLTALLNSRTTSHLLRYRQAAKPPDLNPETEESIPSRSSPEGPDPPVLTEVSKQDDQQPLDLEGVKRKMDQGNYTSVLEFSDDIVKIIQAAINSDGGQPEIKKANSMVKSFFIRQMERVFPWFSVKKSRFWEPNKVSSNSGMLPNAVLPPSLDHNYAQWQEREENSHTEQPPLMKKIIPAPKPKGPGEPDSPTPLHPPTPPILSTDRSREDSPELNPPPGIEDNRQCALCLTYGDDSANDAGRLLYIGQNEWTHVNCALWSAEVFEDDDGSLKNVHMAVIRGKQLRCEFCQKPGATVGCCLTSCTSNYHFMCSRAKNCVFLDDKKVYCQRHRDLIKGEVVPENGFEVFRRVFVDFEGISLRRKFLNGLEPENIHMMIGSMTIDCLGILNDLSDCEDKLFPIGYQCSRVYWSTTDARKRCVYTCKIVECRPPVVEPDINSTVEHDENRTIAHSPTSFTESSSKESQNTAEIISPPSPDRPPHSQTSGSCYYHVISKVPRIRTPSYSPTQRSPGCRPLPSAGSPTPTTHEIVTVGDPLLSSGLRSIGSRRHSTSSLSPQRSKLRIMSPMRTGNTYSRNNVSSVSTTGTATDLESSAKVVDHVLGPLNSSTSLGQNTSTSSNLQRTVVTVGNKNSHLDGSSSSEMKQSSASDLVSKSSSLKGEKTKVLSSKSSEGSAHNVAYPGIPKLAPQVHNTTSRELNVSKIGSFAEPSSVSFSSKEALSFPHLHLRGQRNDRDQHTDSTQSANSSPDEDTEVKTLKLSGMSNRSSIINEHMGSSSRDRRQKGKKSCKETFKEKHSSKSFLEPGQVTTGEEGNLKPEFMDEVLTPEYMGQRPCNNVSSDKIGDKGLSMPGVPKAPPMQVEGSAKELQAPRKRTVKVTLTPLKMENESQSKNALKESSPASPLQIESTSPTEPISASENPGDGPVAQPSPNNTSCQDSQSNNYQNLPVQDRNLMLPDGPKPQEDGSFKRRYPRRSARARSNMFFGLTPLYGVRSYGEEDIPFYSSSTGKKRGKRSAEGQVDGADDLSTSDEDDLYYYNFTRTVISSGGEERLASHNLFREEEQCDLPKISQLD
T1 sequence (Q03164 2719-3969 limits assumed): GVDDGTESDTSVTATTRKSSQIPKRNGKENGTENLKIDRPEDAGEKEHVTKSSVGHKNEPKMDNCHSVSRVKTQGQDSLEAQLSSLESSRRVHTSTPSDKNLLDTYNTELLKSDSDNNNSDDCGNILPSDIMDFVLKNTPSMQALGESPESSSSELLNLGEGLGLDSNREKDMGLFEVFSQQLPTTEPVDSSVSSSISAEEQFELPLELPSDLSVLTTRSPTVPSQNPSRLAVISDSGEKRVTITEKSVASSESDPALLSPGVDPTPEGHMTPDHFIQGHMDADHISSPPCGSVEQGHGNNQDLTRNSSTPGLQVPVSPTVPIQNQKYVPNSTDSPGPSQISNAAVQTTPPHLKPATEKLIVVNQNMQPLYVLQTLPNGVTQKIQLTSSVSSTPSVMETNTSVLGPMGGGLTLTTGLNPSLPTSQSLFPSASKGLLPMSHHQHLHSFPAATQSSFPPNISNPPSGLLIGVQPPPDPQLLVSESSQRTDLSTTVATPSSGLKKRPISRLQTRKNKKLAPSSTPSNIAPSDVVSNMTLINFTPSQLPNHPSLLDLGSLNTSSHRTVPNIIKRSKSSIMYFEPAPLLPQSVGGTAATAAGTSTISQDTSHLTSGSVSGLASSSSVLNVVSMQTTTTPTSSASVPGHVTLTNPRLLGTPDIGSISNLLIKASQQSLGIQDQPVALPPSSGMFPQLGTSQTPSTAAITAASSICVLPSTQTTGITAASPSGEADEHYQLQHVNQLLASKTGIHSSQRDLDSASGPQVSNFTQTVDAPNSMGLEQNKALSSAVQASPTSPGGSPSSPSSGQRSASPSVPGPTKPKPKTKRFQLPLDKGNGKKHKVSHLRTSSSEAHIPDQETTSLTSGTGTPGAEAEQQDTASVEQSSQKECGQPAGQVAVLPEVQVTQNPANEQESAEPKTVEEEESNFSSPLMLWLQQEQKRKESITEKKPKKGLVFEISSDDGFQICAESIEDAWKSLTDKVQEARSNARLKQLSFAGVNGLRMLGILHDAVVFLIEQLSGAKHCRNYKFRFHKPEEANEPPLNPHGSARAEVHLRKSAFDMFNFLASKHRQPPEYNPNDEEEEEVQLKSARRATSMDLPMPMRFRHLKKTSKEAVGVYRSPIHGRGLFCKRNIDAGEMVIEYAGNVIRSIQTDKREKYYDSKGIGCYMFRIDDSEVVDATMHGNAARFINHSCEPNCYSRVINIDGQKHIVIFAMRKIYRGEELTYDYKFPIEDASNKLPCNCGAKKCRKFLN
T1 sequence (Q15291 whole entry partner): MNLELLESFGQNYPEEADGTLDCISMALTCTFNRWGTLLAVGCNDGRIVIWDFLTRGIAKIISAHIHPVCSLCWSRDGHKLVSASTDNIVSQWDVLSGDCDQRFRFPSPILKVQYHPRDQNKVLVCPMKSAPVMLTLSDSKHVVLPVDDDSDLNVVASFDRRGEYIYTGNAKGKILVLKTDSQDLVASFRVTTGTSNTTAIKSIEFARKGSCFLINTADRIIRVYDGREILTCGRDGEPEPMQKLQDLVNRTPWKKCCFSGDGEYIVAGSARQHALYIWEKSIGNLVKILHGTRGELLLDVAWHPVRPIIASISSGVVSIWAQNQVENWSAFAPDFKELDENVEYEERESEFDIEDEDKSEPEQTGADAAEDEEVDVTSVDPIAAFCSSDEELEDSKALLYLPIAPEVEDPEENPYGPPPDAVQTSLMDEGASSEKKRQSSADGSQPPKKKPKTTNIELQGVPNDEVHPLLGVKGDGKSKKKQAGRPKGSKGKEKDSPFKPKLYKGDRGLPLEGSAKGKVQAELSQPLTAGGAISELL

Row | Substance | endogenous interaction between RBM39 and MLL1 ([1]; T47D, HCC1954, MDA-MB231 and ZR7530 cells, versus neg.CPP) | interaction between RBM39 and MLL1 complex members (MLL1, ASH2L, RbBP5) ([1]; treated T47D lysates, anti-RBM39 immunoprecipitation) | proliferation (total cell number) of breast cancer cell subtypes [2] | viability (% viable cells) of breast cancer cell subtypes ([2]; 4 days) | effect on PMEs / normal cells (proliferation and viability) [3] | interaction of RBM39 with RBPs [4]
1 | CPP-E445-V476: synthetic RRM3-derived peptide E445-V476 with Penetratin and His tags (SEQ ID NO: 15; with His tag SEQ ID NO: 14) (RQIKIWFQNRRMKWKKGGEIKDDVIEECNKHGGVIHIYVDKNSAQGNVYVHHHHHH; RRM3-derived synthetic sequence) | disrupts the endogenous interaction | reduced the interaction | pronounced effects on all subtypes | pronounced effects on all subtypes | no effect | did not affect the interaction
2 | CPP-G441-V460: synthetic RRM3-derived peptide G441-V460 with Penetratin and His tags (SEQ ID NO: 20; with His tag SEQ ID NO: 21) (RQIKIWFQNRRMKWKKGGGWDTEIKDDVIEECNKHGGVHHHHHH; RRM3-derived synthetic sequence) | – | – | affected some Luminal and HER2+ subtypes | – | – | –
3 | RRM3 E445-V476: RRM3 E445-V476 peptide in the absence of Penetratin, negative control (SEQ ID NO: 2) (EIKDDVIEECNKHGGVIHIYVDKNSAQGNVYV; listed as Homo sapiens) | – | – | no effect | – | – | –
